Data as given in ChEMBL document CHEMBL1201862, “PubChem BioAssay data set” (2004).
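How tested: cells in 96-well plates exposed to compound for 48 hours at five concentrations. GI50 is the concentration that inhibits growth by half.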 Active and inactive are the calls of the source. Cut-off read from the data, not from the text of the source: active = GI50 up to about 1.1 µM and inactive = higher. Where a SMILES comes first, the peptide text is derived from it. [ ]: non-standard residue; d: D form. 2Nal = N[CH](Cc1ccc2ccccc2c1)C(=O)O

Legend:
Experiment in all cases: NCI anticancer screen, dose series, 48 h
EKVX = test system: EKVX
SNB-75 = test system: SNB-75
HCT-116 = test system: HCT-116
HOP-92 = test system: HOP-92
NCI-H226 = test system: NCI-H226
SF-268 = test system: SF-268
MCF7 = test system: MCF7
SNB-19 = test system: SNB-19
OVCAR-4 = test system: OVCAR-4
Malme-3M = test system: Malme-3M
TK-10 = test system: TK-10
NCI-H460 = test system: NCI-H460
OVCAR-8 = test system: OVCAR-8
BT-549 = test system: BT-549
T47D = test system: T47D
A549 = test system: A549
SN12C = test system: SN12C
M14 = test system: M14
MDA-N = test system: MDA-N

Structure (SMILES)	GI50 (EKVX)	GI50 (SNB-75)	GI50 (HCT-116)	GI50 (HOP-92)	GI50 (NCI-H226)	GI50 (SF-268)	GI50 (MCF7)	GI50 (SNB-19)	GI50 (OVCAR-4)	GI50 (Malme-3M)	GI50 (TK-10)	GI50 (NCI-H460)	GI50 (OVCAR-8)	GI50 (BT-549)	GI50 (T47D)	GI50 (A549)	GI50 (SN12C)	GI50 (M14)	GI50 (MDA-N)
COc1cccc2c1C(=O)c1c(O)c3c(c(O)c1C2=O)C[C@H](O)C[C@@H]3OC1CC(N)C(O)C(C)O1 (stereo partly drawn)	5.21 µM (inactive)	1.87 µM (inactive)	0.245 µM (active)	2 µM (inactive)	1.08 µM (active)	1.57 µM (inactive)	< 0.01 µM (active)	3.36 µM (inactive)	4.36 µM (inactive)	0.843 µM (active)	1.49 µM (inactive)	< 0.01 µM (active)	1.05 µM (active)	3.04 µM (inactive)	1.21 µM (inactive)	1.98 µM (inactive)			
COC(CN1C=C(Sc2ccccc2)CC1)OC	43.3 µM (inactive)	19 µM (inactive)	29.5 µM (inactive)	26.9 µM (inactive)	33.3 µM (inactive)	29.7 µM (inactive)		37.8 µM (inactive)	34 µM (inactive)	35.9 µM (inactive)	32.7 µM (inactive)	31.7 µM (inactive)	29.6 µM (inactive)			30.8 µM (inactive)	33.9 µM (inactive)	33.7 µM (inactive)	
CC(C)(C)C1CC[C@H](O)[C@H]([C@H](O)CC2CC(=O)N(c3ccccc3)C(=O)C2)C1 (stereo partly drawn)	> 100 µM (inactive)	> 100 µM (inactive)	> 100 µM (inactive)	36.1 µM (inactive)	> 100 µM (inactive)	> 100 µM (inactive)	> 100 µM (inactive)	> 100 µM (inactive)	> 100 µM (inactive)	> 100 µM (inactive)	> 100 µM (inactive)	95.9 µM (inactive)	> 100 µM (inactive)	> 100 µM (inactive)		> 100 µM (inactive)	> 100 µM (inactive)	> 100 µM (inactive)	> 100 µM (inactive)
COc1ccc(S(=O)(=O)Nc2ccc(-c3csc(N4C(=O)/C(=C/C=C\c5ccccc5)N=C4c4ccccc4)n3)cc2)cc1Cl		33.4 µM (inactive)	25.7 µM (inactive)	16.6 µM (inactive)	34 µM (inactive)	19.1 µM (inactive)	32.4 µM (inactive)	33.7 µM (inactive)	25.9 µM (inactive)	20.2 µM (inactive)	38.5 µM (inactive)	32.1 µM (inactive)	23.2 µM (inactive)		19.5 µM (inactive)	28.9 µM (inactive)	33.2 µM (inactive)	27.6 µM (inactive)	31.3 µM (inactive)
CCCSc1ccc2[nH]c(/N=C/c3ccccc3)cc2c1	26.9 µM (inactive)	20.5 µM (inactive)	17.7 µM (inactive)	25.5 µM (inactive)		19.7 µM (inactive)			16.8 µM (inactive)	16.6 µM (inactive)			23.3 µM (inactive)	33.7 µM (inactive)	48 µM (inactive)		27.3 µM (inactive)	25.5 µM (inactive)	7.67 µM (inactive)
CNC(=O)OCc1c(COC(=O)NC)c(-c2ccc(Cl)c(Cl)c2)n2c1SCC2	19.8 µM (inactive)	8.77 µM (inactive)	11.5 µM (inactive)	10.6 µM (inactive)	0.387 µM (active)	13.3 µM (inactive)	13 µM (inactive)	29.2 µM (inactive)		22.7 µM (inactive)	2.86 µM (inactive)	9.04 µM (inactive)	3.85 µM (inactive)		8.81 µM (inactive)	23.2 µM (inactive)	13 µM (inactive)	18.7 µM (inactive)	18.5 µM (inactive)
CC(NC(=O)C(N)Cc1ccccc1)C(=O)NC(Cc1ccc(O)cc1)C(=O)NC(Cc1c[nH]c2ccccc12)C(=O)NC(CCCCN)C(=O)NC(C(=O)NC(C)C(=O)NC(Cc1ccc2ccccc2c1)C(N)=O)C(C)C (stereo not drawn) (H-FAYWKVA[2Nal]-NH2; configuration not given here)	> 12.5 µM (inactive)	28.1 µM (inactive)	> 12.5 µM (inactive)		> 12.5 µM (inactive)	> 12.5 µM (inactive)	> 12.5 µM (inactive)	24.6 µM (inactive)	> 12.5 µM (inactive)	> 12.5 µM (inactive)		> 12.5 µM (inactive)	> 12.5 µM (inactive)		> 12.5 µM (inactive)	> 12.5 µM (inactive)	> 12.5 µM (inactive)	> 12.5 µM (inactive)	
COc1cc(O)c2c(=O)cc(-c3ccc(O)cc3O)oc2c1CC=C(C)C [ARTOCARPETIN A]	26.1 µM (inactive)	20.7 µM (inactive)	18.1 µM (inactive)	19.6 µM (inactive)	12.2 µM (inactive)	17.4 µM (inactive)	20.3 µM (inactive)	18.3 µM (inactive)	13.1 µM (inactive)	16.3 µM (inactive)	27.7 µM (inactive)	14.3 µM (inactive)	16.9 µM (inactive)			14.2 µM (inactive)	16.4 µM (inactive)	13.8 µM (inactive)	19.3 µM (inactive)
